For assay [1], the target named is T1, human NFS1 (Homo sapiens, UniProt Q9Y697).
T1 construct: His tag (N); made in house; host or cells: E. coli BL21(DE3)
On the set-up: method as in PMID 36103522. As to conditions: cited from earlier work.

For assay [2], the target named is T1, human NFS1. Kind of assay: NFS1 inhibition assay (H2S-producing, methylene blue). Format: biochemical. Particulars: for inhibition of NFS1: at 100 µM; for IC50: recombinant human NFS1Δ1-55, 1 mM cysteine, n = 4, read-out: IC50, NFS1 activity. On the procedure: The 42 candidate compounds were tested for their inhibitory effects on human NFS1 using an in vitro H2S-producing assay. […] Subsequently, the effects of the selected compounds (100 µM) on human NFS1 activity were evaluated.
The activity of NFS1 was determined using a methylene blue assay as described previously, with some modifications. Briefly, reaction mixtures (200 μL) containing 50 mM of Tris-HCl (pH 8.0), 10 μM of PLP, 1 mM of DTT, and 10 μg of NFS1 were preincubated at 37 °C for 3 min. The reaction was then initiated by adding 1 mM of cysteine. After 15 min of incubation at 37 °C, the reaction was quenched by adding 25 μL of 20 mM N,N-dimethyl-p-phenylenediamine in 7.2 M of HCl and 25 μL of 30 mM FeCl3 in 1.2 M of HCl. Subsequently, the reaction mixtures were incubated for another 15 min at 37 °C, followed by centrifugation at 12,000 rpm for 10 minutes to remove the precipitates. The absorbance of the supernatant was measured at 670 nm. A reaction mixture without the substrate cysteine was used as the negative control. The H2S concentration was calculated based on a standard curve prepared using various concentrations of sodium sulfide (Na2S).
For the NFS1 inhibition assays, all test compounds were dissolved in dimethyl sulfoxide (DMSO) to prepare 10 mM stock solutions, which were stored at −80 °C. The stock solutions were diluted to the appropriate concentrations with 50 mM of Tris-HCl (pH 8.0) as required for the experiments. A reaction mixture containing DMSO but no test compounds was used as a negative control. The dose-dependent effects of the inhibitors on NFS1 activity were determined using the methylene blue assay described above. The IC50 values of the inhibitors were calculated by adding different concentrations of the inhibitors to the enzyme reaction mixtures.

In assay [3] the test system is A549 cells. The assay can be described thus: CCK-8 cell viability assay, A549. Format: cell-based, human. Particulars: for IC50: Homo sapiens, A549, CCK-8, 72 h. How it is done: (§1) Human bronchial epithelial cells (BEAS-2B) and human lung adenocarcinoma A549 cells were purchased from the Institute of Biochemistry and Cell Biology, Chinese Academy of Sciences (Shanghai, China). BEAS-2B and A549 cells were cultured in DMEM supplemented with 10% (v/v) fetal bovine serum and 1% (v/v) penicillin–streptomycin solution at 37 °C in a humidified atmosphere containing 5% CO2. The half-maximal inhibitory concentration (IC50) values of the selected compounds against BEAS-2B and A549 cells were determined using the CCK-8 assay. Briefly, the cells were seeded into 96-well culture plates at a density of 5 × 10^3 cells per well. After 12 h of culture, fresh medium containing varying concentrations of the selected compounds dissolved in DMSO was added for an additional 72-hour incubation. Subsequently, 10 μL of CCK-8 solution was added to each well, followed by a further 1.5-h incubation at 37 °C. The optical density at 450 nm (OD450) for each well was measured using a microplate reader. Medium containing DMSO alone was used as the control group. Cell viability was calculated as the percentage of the OD450 of the experimental group compared to that of the control group, which was set at 100%.
A general note: Tetrazolium dyes change colour on reduction, which living cells bring about.

The subject of assay [4] is A549 cells. Kind of assay: Endogenous ROS levels, DCFH-DA fluorescence. The assay is classed as cell-based, human. Particulars: 48 h, Compound 53 50 µM, Erastin 2.5 µM, 2-AAPA 20 µM. How it is done:
Endogenous ROS levels in A549 cells were detected using the fluorescent dye DCFH-DA [48, 49]. A549 cells were cultured in DMEM supplemented with 10% fetal bovine serum at 37 °C in a humidified atmosphere containing 5% CO2. […] Subsequently, the cells were washed three times with prewarmed PBS, and fresh medium containing 10 μM of DCFH-DA was added. After 30 min of incubation, the cells were washed again with prewarmed PBS, fresh medium was added, and the cells were imaged using an inverted fluorescence microscope (Leica, Wetzlar, Germany). Images of live cells were acquired in six different fields. ImageJ software was used to analyze the images.

Assay [5] deals with A549 cells. Kind of assay: Lipid peroxide (LPO) content. Format: cell-based, human. As to conditions: 48 h, Erastin 2.5 µM, Compound 53 50 µM, 2-AAPA 20 µM, alone or combined. How it is done:
A549 cells were seeded in 10 cm dishes at a density of 2 × 10^6 cells per dish and cultured until they reached 40–60% confluence. […] Lipid peroxidation (LPO) levels were measured using a Lipid Peroxide (LPO) Content Assay Kit (Solarbio, China) following the manufacturer’s instructions.

Assay [6] has as its system BEAS-2B cells. The assay can be described thus: CCK-8 cell viability assay, BEAS-2B. Particulars: Homo sapiens, CCK-8, 72 h. The assay is classed as cell-based. On the procedure: as §1
Assay [7] addresses T2, human cystathionine-β-synthase (CBS) (Homo sapiens, UniProt P35520).
T2 construct: made in house; host or cells: E. coli
T2 sequence (P35520 1-551): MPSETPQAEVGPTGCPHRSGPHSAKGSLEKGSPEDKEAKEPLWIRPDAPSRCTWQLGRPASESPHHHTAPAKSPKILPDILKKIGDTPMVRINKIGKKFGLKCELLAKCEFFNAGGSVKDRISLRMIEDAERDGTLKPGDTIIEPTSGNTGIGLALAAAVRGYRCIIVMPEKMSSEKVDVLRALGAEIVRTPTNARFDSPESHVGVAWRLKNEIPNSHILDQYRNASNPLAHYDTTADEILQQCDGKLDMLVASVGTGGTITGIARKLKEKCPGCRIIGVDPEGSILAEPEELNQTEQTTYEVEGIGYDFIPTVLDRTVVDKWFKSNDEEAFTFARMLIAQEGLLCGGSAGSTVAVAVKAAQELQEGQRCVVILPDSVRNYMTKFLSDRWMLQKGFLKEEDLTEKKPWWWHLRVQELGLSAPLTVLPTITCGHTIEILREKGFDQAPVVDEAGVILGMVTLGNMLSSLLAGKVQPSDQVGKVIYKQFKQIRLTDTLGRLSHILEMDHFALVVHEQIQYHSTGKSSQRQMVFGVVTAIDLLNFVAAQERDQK
Kind of assay: Selectivity assay, H2S-producing activity of CBS. Format: biochemical. Particulars: at 100 µM. How it is done:
(§2) To evaluate the selectivity of Compounds 53 and 56, their effects on the activities of two other PLP-dependent enzymes, human cystathionine-β-synthase (CBS) and cystathionine-γ-lyase (CSE), were determined using a H2S-producing assay. Human CBS and CSE were expressed and purified in E. coli with a purity exceeding 90%, as confirmed by SDS-PAGE (Figures S4A and S5A). Subsequently, the H2S-producing activities of CBS and CSE were assessed in the presence of different concentrations of Compounds 53 and 56. A widely used CBS inhibitor, AOAA, and a specific CSE inhibitor, PAG, were used as positive controls (Figures S4B and S5B).
(§3) The H2S-producing activity of CBS was measured as previously described. The reaction mixture (200 μL) contained 50 mM of Hepes buffer (pH 7.4), 2 mM of homocysteine, 10 μM of PLP, 0.4 mM of lead nitrate, and 5 μg of CBS protein. It was preincubated at 37 °C for 3 min, and the reaction was initiated by the addition of 2 mM of cysteine. The reaction was monitored in a multifunctional microplate reader at 37 °C for 10 min. An extinction coefficient of 5500 M^−1 cm^−1 at 390 nm was used to calculate the lead sulfide concentration. The method used to determine CSE activity in the H2S-producing assay was identical to the CBS assay, except that 1 mM of cysteine was used as the sole substrate. […]

Assay [8] deals with T3, cystathionine-γ-lyase (CSE) (Homo sapiens, UniProt P32929).
T3 construct: made in house; host or cells: E. coli
Kind of assay: Selectivity assay, H2S-producing activity of CSE. As to conditions: at 100 µM. Format: biochemical. How it is done:
as §2, §3

Assay [9] relates to cysteine desulfurase activity of Plasmodium falciparum. On the set-up: method as in PMID 24709262. As to conditions: cited from earlier work.

A word on the IC50: it is the concentration that gives 50% inhibition.

Entries after “also recorded” stand apart in the source; their conditions may differ.

T1 sequence (Q9Y697 56-457): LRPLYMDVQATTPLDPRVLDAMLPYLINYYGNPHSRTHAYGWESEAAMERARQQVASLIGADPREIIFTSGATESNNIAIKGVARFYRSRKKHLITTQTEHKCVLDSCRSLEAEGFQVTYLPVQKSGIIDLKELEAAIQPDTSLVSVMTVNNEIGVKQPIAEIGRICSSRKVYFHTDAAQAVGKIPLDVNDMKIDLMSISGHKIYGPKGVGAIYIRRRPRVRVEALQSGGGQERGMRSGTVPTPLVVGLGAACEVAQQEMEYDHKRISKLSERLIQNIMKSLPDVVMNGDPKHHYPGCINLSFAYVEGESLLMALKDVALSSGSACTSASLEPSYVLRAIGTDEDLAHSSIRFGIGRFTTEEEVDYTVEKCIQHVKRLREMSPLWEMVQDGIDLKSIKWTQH
T3 sequence (P32929 whole entry): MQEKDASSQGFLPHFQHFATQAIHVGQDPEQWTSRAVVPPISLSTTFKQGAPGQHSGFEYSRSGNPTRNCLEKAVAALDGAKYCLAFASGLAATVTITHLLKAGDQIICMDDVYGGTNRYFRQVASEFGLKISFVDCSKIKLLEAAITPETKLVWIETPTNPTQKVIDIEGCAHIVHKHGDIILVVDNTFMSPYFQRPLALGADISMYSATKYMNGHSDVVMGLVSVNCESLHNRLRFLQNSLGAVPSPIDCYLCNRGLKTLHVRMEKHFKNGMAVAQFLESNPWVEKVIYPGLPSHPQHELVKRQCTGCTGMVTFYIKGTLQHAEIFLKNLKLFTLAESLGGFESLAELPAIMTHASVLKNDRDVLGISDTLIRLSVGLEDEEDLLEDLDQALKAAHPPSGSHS

As to `COCC1(CO)C(=O)C2CCN1CC2` (stereo not shown) [APR-246, eprenetapopt], the “concentrations required to inhibit NFS1” value in [1] is listed as “millimolar concentrations”.

Consider `COc1cc(/C=N\NC(=O)Cc2nnc(NC(=O)c3ccc([N+](=O)[O-])cc3)s2)ccc1O` [Compound 1], for which, in assay [2], the “inhibition of NFS1” value is reported as “approximately 50%” and the IC50 turned out to be 153 ± 3.42 µM.

As for `CC(=O)NC(CSC(=O)Nc1ccc(NC(=O)SCC(NC(C)=O)C(=O)O)cc1)C(=O)O` (stereo not shown) [Compound 2-AAPA, 2-Acetylamino-3-[4-(2-acetylamino-2-carboxyethylsulfanylcarbonylamino)phenylcarbamoylsulfanyl] propionic acid], in [3], the IC50 was ~20 µM. The “intracellular ROS levels” value in assay [4] is “significantly elevated cellular ROS levels”. In assay [5], the “intracellular lipid peroxide (LPO) levels” value is reported as “no significant changes”.

Take `O=c1cc(-c2ccc(O)c(O)c2)oc2cc(O[C@H]3O[C@H](CO)[C@@H](O)[C@@H](O)[C@@H]3O)cc(O)c12` [Compound 37]: in [2], the “inhibition of NFS1” value is listed as “approximately 50%” and the IC50 was determined as 141 ± 3.49 µM.

Consider `COc1cc(/C=N/NC(=O)CSc2nnc(SCc3ccccc3)s2)cc(OC)c1O` [Compound 56], for which the IC50 was 78.4 ± 2 µM in assay [6] and 27.7 ± 1.99 µM in assay [3]. In addition, in assay [7], the “inhibitory effect on CBS” value was “no significant inhibitory effects”. Besides, the “inhibitory effect on CSE” value in assay [8] is recorded as “no significant inhibitory effects”.

Consider `N[C@@H]1CON=C1O` [D-cycloserine], for which the IC50 in assay [9] is ~29 µM.

Take `CCOc1ccccc1-n1c(C(C)N2CCN(C(=O)COc3ccc(Cl)cc3)CC2)nc2ccccc2c1=O` (stereo not shown) [Erastin]: the “effect on cell viability” value in [3] (A549 cells, 2.5 µM) is recorded as “did not significantly affect cell viability”. For the same compound, the “intracellular ROS levels” value in assay [4] was “significantly increased intracellular ROS levels; also recorded: significantly elevated cellular ROS levels”. Moreover, the “intracellular lipid peroxide (LPO) levels” value in assay [5] was “elevated LPO levels”.

Values taken from article PMC11942905, “Identification of a Selective Inhibitor of Human NFS1, a Cysteine Desulfurase Involved in Fe-S Cluster Assembly, via Structure-Based Virtual Screening” (International Journal of Molecular Sciences, 2025).
